The values below come from patent publication US4146717A, “Nitroquinazolinone compounds having antiviral properties” (priority 1974, dated 1979).

In brackets after ≈: the same amount, converted by molar mass. Where two headings read alike, the source gives them in different places. A value given as a limit tells only on which side of the number the result lay.

For series [1], the system named is vaccinia virus IHD strain. Nature of the series: microbe, parasite or virus in culture. Type of series: cell-based. The note with it: for MIC: Orthopoxvirus vaccinia, in Gallus gallus, 72 h, read-out: minimum inhibitory concentration (MIC); for Chemotherapeutic index (MTC/MIC): chick embryo fibroblast cells, 4320 min.
In series [2] the test system is vaccinia virus IHD strain. Type of series: in vivo, mice (ICR strain). The note with it: -2 to 100 hours after virus challenge, 12 days observation; for Survival rate, PO: 100 mg/kg orally; for Survival rate, SC: 100 mg/kg subcutaneously.
The nature of series [3]: Acute toxicity in mice, intraperitoneal. Type of series: in vivo, mice (ddN strain). The note with it: for No. of survivors/No. of tested: 7 days observation. The source says: The compounds of the present invention are not only very effective but also show no side effects. For example, acute toxicity of the present compound by the intraperitoneal injection in mice is remarkably lower than Methisazone as shown in Table III.
animals: male mice weighing 17 to 20 g of ddN strain
administration: intraperitoneally, suspension in 0.5% carboxymethyl
observation period: 7 days after an administration

The conditions of series [4]: cited from earlier work; for undesirable side effects: clinical.
Series [5] in a line: Toxic effects in chick embryo fibroblast cell culture (minimum toxic concentration). Particulars: chicken, chick embryo fibroblast cells.
The subject of series [6] is herpes simplex virus HF strain. Nature of the series: Effects on herpes simplex virus multiplication in chick embryo fibroblast cell culture (plaque reduction). Particulars: 5 μg/ml, 4 days at 37° C; for Average number of plaques: non-medicated control 45; for inhibition at 5 µg/mL: Fibroblast, 96 h, read-out: Percentage inhibition of occurrences of plaques. Type of series: cell-based. The method, then:
Effects on herpes simplex virus multiplication in chick embryo fibroblast cell culture.
A general procedure of plaque-reduction method was employed. Monolayers of chick embryo fibroblast cells were prepared by a general procedure, i.e., trypsinization of 10 day old chick embryo and then 2 days' incubation in Eagle's minimum essential medium (Eagle's MEM) containing a 5% calf serum at 37° C. in a plaque tube. Then, growth medium was discarded and about 100 plaque forming units (PFU) of herpes simplex virus HF strain per plaque tube were challenged. […] After 4 day's incubation at 37° C., the number of plaques was counted and compared with the controlled plaque tube without test compounds.
cells: chick embryo fibroblast cells
virus: herpes simplex virus HF strains
observation: by counting the number of plaques after 4 days' incubation

The test system of series [7] is parainfluenza virus type 1, Sendai virus. Nature of the series: Effects on parainfluenza virus multiplication in chick embryo fibroblast cell culture (haemagglutinating titration). Type of series: cell-based. Particulars: 2 days at 37° C, non-medicated control 32. The method, then:
Effects on parainfluenza virus multiplication in chick embryo fibroblast cell culture.
A general procedure of haemagglutinating titration was employed. Monolayers of chick embryo fibroblast cells were prepared by the same procedure as described in Example 12. Parainfluenza virus type 1, haemagglutinating virus of Japan (HVJ), so called Sendai virus was challenged on 3rd day monolayer cell sheet. […] After 2 days' incubation at 37° C., the cells were harvested, disrupted by freezing and thawing and centrifuged. The haemagglutinating titre of the supernatant was assayed using 1% guinea pig red blood cell as usual.
cells: chick embryo fibroblast cell
virus: parainfluenza virus type 1, Sendai virus

Series [8] has as its system Influenza virus NWS strain. Type of series: in vivo, mice (ICR strain). Particulars: 14 days observation, control 1/8.
The subject of series [9] is adeno virus type 8 Kanehisa strain. The note with it: concentration 40; 5th day after infection; non-medicated control 512.
The test system of series [10] is DNA type viruses such as herpes simplex and vaccinia. The note with it: clinical use; cited from earlier work.

As to `CN1C(=O)C(=NNC(N)=S)c2ccccc21` [Methisazone, 1-methylindole-2,3-dione 3-thiosemicarbazone, reference compound], the MIC in series [1] is 5 µg/mL (≈ 21.3 µM). In addition, the “minimum inhibitory concentration (MIC)” value in series [1] (vaccinia virus IHD strain, 1.1 × 10^4 PFU/tube, CPE after 3 days' incubation at 37° C) is 5 µg/mL (≈ 21.3 µM). Besides, the “Chemotherapeutic index (MTC/MIC)” value in [1] (vaccinia virus) is listed as 4. In addition, in series [2], the “Survival rate, PO” value was 100% and the “Survival rate, SC” value is listed as 100%. In addition, the “No. of survivors/No. of tested” value in [3] (1000 mg/kg intraperitoneally) is 3/5. The “No. of survivors/No. of tested” value in series [3] (2000 mg/kg intraperitoneally) is 0/5. For the same compound, the “gastro-duodenal hemorrhage and intestinal ulceration” value in series [3] (mice of the acute toxicity test) was “Severe gastro-duodenal hemorrhage and intestinal ulceration were observed in dead mice”. For the same compound, the “undesirable side effects” value in [4] is “severe vomiting, dermatitis and jaundice”. The compound further returned an MCC at 72 h in series [5] of 20 µg/mL.
Consider `O=c1nc(-c2ccccc2)c2cc([N+](=O)[O-])ccc2n1Cc1ccco1` [compound 13], for which, in [1], the MIC was determined as 1 µg/mL (≈ 2.88 µM). For the same compound, in series [1] (vaccinia virus), the “Chemotherapeutic index (MTC/MIC)” value is on record as 100. Also, the MCC at 72 h in series [5] came out at 100 µg/mL.
The like results for `CCOCCn1c(=O)nc(-c2ccccc2)c2cc([N+](=O)[O-])ccc21` [compound 19] were, in that order, 5 µg/mL (≈ 14.7 µM), above 20 and above 100 µg/mL.
The like results for `O=c1nc(-c2ccccc2Cl)c2cc([N+](=O)[O-])ccc2n1CC1CC1` [compound 20] were, in that order, 5 µg/mL (≈ 14.1 µM), 10 and 50 µg/mL.
Take `O=c1nc(-c2ccccc2)c2cc([N+](=O)[O-])ccc2n1CC1CCCCCCC1` [compound 4]: the MIC in [1] was 0.1 µg/mL (≈ 0.255 µM). In series [1] (vaccinia virus), the “Chemotherapeutic index (MTC/MIC)” value is 1000. Moreover, the MCC at 72 h in [5] came out at 100 µg/mL.
As usually defined, the inhibition is the relative decrease from the control value, in per cent. On to `O=c1nc(-c2ccccc2)c2cc([N+](=O)[O-])ccc2n1CC1CCCCO1` (centres unmarked) [compound 5], for which the MIC in [1] was found to be 0.2 µg/mL (≈ 0.547 µM). In series [1], the “Chemotherapeutic index (MTC/MIC)” value is above 500. The “Survival rate, SC” value in series [2] is 100%. Moreover, the “No. of survivors/No. of tested” value is 5/5 in series [3] (1000 mg/kg intraperitoneally) and 4/5 in [3] (2000 mg/kg intraperitoneally). Besides, the “Average number of plaques” value in [6] turned out to be 9. Further, the inhibition at 5 µg/mL in [6] is 80%. Further, the Haemagglutinating titre in series [7] (12.5 μg/ml) is 4; in series [7] (25 μg/ml), below 2; in series [9], 64. In addition, the Survival rate was 4/8 in series [8] (10 mg/kg subcutaneously) and 6/8 in [8] (50 mg/kg subcutaneously). The compound further came in with an MCC at 72 h in series [5] above 100 µg/mL.
Regarding `O=c1nc(-c2ccccc2)c2cc([N+](=O)[O-])ccc2n1CC1CCCCCC1` [compound 1], the MIC in series [1] worked out at 0.1 µg/mL (≈ 0.265 µM). Further, the “Chemotherapeutic index (MTC/MIC)” value in series [1] (vaccinia virus) turned out to be 1000. The compound also came in with an MCC at 72 h in series [5] of 100 µg/mL.
The like results for `O=c1nc(-c2ccccc2)c2cc([N+](=O)[O-])ccc2n1Cc1ccccc1Cl` [compound 8] were, in that order, 0.25 µg/mL (≈ 0.638 µM), 20 and 5 µg/mL.
In the same order, the values of `O=c1nc(-c2ccccc2)c2cc([N+](=O)[O-])ccc2n1CC1CCCC1` [compound 7] are 0.2 µg/mL (≈ 0.572 µM), above 500 and above 100 µg/mL.
Consider `O=c1[nH]c(=O)n([C@H]2C[C@H](O)[C@@H](CO)O2)cc1I` [Idoxuridine], for which, in [4] (clinical use), the “toxicity limiting use” value was “it can only be used by topical application because of its toxicity”. Moreover, the “antiviral spectrum” value in [10] was “only effective against DNA type viruses such as herpes simplex and vaccinia”.
`NC12CC3CC(CC(C3)C1)C2` [Amantadine]: the “undesirable side effects” value in [4] is “severe side effect on central nervous system”.
`O=c1nc(-c2ccccc2)c2cc([N+](=O)[O-])ccc2n1C1CCCCC1` [compound 2]: the MIC in [1] stood at 0.1 µg/mL (≈ 0.286 µM). Moreover, in [1] (vaccinia virus), the “Chemotherapeutic index (MTC/MIC)” value was 1000. Moreover, the Haemagglutinating titre in series [7] (12.5 μg/ml) is recorded as 4; in series [7] (25 μg/ml), 2. In series [5], the MCC at 72 h came out at 100 µg/mL.
As to `O=c1nc(-c2ccccc2)c2cc([N+](=O)[O-])ccc2n1CCC1CCCCC1` [compound 15], the MIC in [1] came to 5 µg/mL (≈ 13.2 µM). Further, the “Chemotherapeutic index (MTC/MIC)” value in [1] (vaccinia virus) is listed as above 20. Also, in series [5], the MCC at 72 h was above 100 µg/mL.
The like results for `O=c1nc(-c2ccccc2)c2cc([N+](=O)[O-])ccc2n1Cc1cccs1` [compound 12] were, in that order, 0.6 µg/mL (≈ 1.65 µM), 80 and 50 µg/mL.
Regarding `O=c1nc(-c2ccccc2)c2cc([N+](=O)[O-])ccc2n1Cc1ccccc1` [compound 11], the MIC in series [1] is 0.6 µg/mL (≈ 1.68 µM). The “Chemotherapeutic index (MTC/MIC)” value in series [1] (vaccinia virus) is given as 40. Besides, the “Survival rate, SC” value in series [2] is on record as 100%. The compound further had an MCC at 72 h in [5] of 25 µg/mL.
For the compound `O=c1nc(-c2ccccc2)c2cc([N+](=O)[O-])ccc2n1CC1CC1` [compound 18], the MIC in series [1] was 5 µg/mL (≈ 15.6 µM). In addition, in series [1] (vaccinia virus), the “Chemotherapeutic index (MTC/MIC)” value is above 20. The compound also came in with an MCC at 72 h in series [5] above 100 µg/mL.
On to `Cc1ccccc1Cn1c(=O)nc(-c2ccccc2)c2cc([N+](=O)[O-])ccc21` [compound 9], for which the MIC in series [1] was determined as 0.25 µg/mL (≈ 0.673 µM). Also, the “Chemotherapeutic index (MTC/MIC)” value in series [1] (vaccinia virus) amounted to 20. For the same compound, in [6], the “Average number of plaques” value came out at 2 and the inhibition at 5 µg/mL amounted to 96%. This compound yielded an MCC at 72 h in series [5] of 5 µg/mL.
Consider `CCN(CC)C(=O)Cn1c(=O)nc(-c2ccccc2)c2cc([N+](=O)[O-])ccc21` [compound 17], for which the MIC in series [1] worked out at 5 µg/mL (≈ 13.1 µM). In addition, the “Chemotherapeutic index (MTC/MIC)” value in series [1] (vaccinia virus) is given as above 20. The compound further showed an MCC at 72 h in series [5] above 100 µg/mL.
The like results for `O=c1nc(C2CCCCC2)c2cc([N+](=O)[O-])ccc2n1CC1CC1` [compound 21] were, in that order, 5 µg/mL (≈ 15.3 µM), 10 and 50 µg/mL.
As for `O=c1nc(-c2ccccc2)c2cc([N+](=O)[O-])ccc2n1CC1CCCCC1` [compound 3], the MIC in series [1] worked out at 0.1 µg/mL (≈ 0.275 µM). Also, the “Chemotherapeutic index (MTC/MIC)” value in series [1] (vaccinia virus) is recorded as 1000. In series [2], the “Survival rate, PO” value is 100% and the “Survival rate, SC” value is on record as 100%. Besides, in series [5], the MCC at 72 h was 100 µg/mL. The Haemagglutinating titre in series [9] is given as 32.
Consider `O=c1nc(-c2cccs2)c2cc([N+](=O)[O-])ccc2n1CC1CCCCO1` (centres unmarked) [compound 10], for which the MIC in [1] was determined as 0.4 µg/mL (≈ 1.08 µM). Moreover, in [1] (vaccinia virus), the “Chemotherapeutic index (MTC/MIC)” value is above 250. For the same compound, the MCC at 72 h in series [5] was above 100 µg/mL.
On to `O=c1nc(-c2ccccc2)c2cc([N+](=O)[O-])ccc2n1CC1CCCO1` (centres unmarked) [compound 14], for which, in series [1], the MIC was 1.25 µg/mL (≈ 3.56 µM). Also, the “Chemotherapeutic index (MTC/MIC)” value in series [1] (vaccinia virus) was above 80. In series [2], the “Survival rate, SC” value is recorded as 100%. In addition, the entries for the “No. of survivors/No. of tested” value in series [3] (1000 mg/kg intraperitoneally) and in [3] (2000 mg/kg intraperitoneally) were 5/5 and 4/5, respectively. The MCC at 72 h in [5] is above 100 µg/mL. The Haemagglutinating titre in [9] is on record as 32.
As to `O=c1nc(-c2ccccc2)c2cc([N+](=O)[O-])ccc2n1Cc1ccccn1` [compound 6], in series [1], the MIC was 0.2 µg/mL (≈ 0.558 µM). The “Chemotherapeutic index (MTC/MIC)” value in series [1] (vaccinia virus) is reported as 250. The MCC at 72 h in series [5] was 50 µg/mL.
Consider `CSCn1c(=O)nc(-c2ccccc2)c2cc([N+](=O)[O-])ccc21` [compound 22], for which, in series [1], the MIC stood at 5 µg/mL (≈ 15.3 µM). Also, the “Chemotherapeutic index (MTC/MIC)” value in series [1] (vaccinia virus) is given as 10. For the same compound, in series [5], the MCC at 72 h came out at 50 µg/mL.
